Measurements: US9278086B2, “Combination therapy and uses thereof for treatment and prevention of parasitic infection and disease” (The Royal Institution for the Advancement of …, priority 2010, dated 2016)

Experiments:
in vivo = assay: in vivo; set-up: species or system mice; details: mouse
Protocol: Cysteamine was detected in plasma by high performance liquid chromatography analysis with ultraviolet detection (Dias V C, et al. (1998) Clin Chem 44: 2199-2201). Briefly, blood was collected in EDTA/heparin-containing tubes, and plasma was obtained by centrifugation. Plasma thiols were reduced by treatment with Tris(2-carboxyethyl)phosphine (0.05M final concentration, 20 min. at 20° C.), and proteins were precipitated with tri-chloroacetic acid (TCA, 10% final concentration). Free thiols from the protein-free supernatant were derivatized using SBD-F ([…]), used at a final concentration of 0.2 mg/ml (1 hr at 60° C.) in 0.05 M borate buffer (pH 9.5). The mixture was then analyzed by HPLC: the mobile phase consisted of an aqueous solvent (0.1M acetic acid, 0.1 sodium acetate, pH 4.3) running on a Supelco™ LC-8 column, and elution of plasma analytes was with a 0-10% acetonitrile gradient. Detection of SBD-F derivatized analytes was by reading fluorescence at 515 nm (excitation at 385 nm). Cysteamine elution peaks were quantified (surface area), and plasma concentrations were calculated using a set of internal cysteamine standards processed at the same time. Area under the curve (AUCt0-tlast) was calculated using the trapezoid approximation method.
To gain more insight into the anti-malarial effect of cysteamine (Cys) in vivo, the pharmacokinetic characteristics (plasma level) of Cys administered through the sub-cutaneous (s.c.) and intra-peritoneal (i.p) routes was compared. […] To determine which pharmacokinetic parameter (AUC vs. Cmax) is important for efficacy against Plasmodium, the i.p. and s.c. routes of injection were compared in a continuous treatment regimen, starting one day prior to infection (10^5 pRBC of P. chabaudi, i.v.) and continuing daily for 7 days. Parasitemia was monitored on thin blood smears at days 5, 6 and 7 following infection (FIG. 1B). Treatment of infected animals with 120 mg/kg of Cys administered either s.c. or i.p. caused a highly significant (p<0.01) 50% reduction in parasitemia at day 5 and 6, relative to saline injected controls.
It was next determined whether Cys at equivalent dosing to that used in the clinical treatment of nephropathic cystinosis in humans has an effect on the course and severity of P. chabaudi infection in mice. In cystinosis patients, Cys is given orally as Cys bitartrate (Cystagon®). […] The efficacy of different regimens of 50 mg/kg Cys s.c. (number of injections, interval between injections) on replication of P. chabaudi in vivo was evaluated. P. chabaudi-infected mice were treated daily, starting at day −1 and continuing to day 10, with either 1×150 mg/kg, 3×50 mg/kg given at 2 hr intervals, 4×50 mg/kg given at 2 hr intervals or 3×50 mg/kg given at 1 hr intervals of Cys, and blood parasitemia was monitored at days 5, 6 and 7 (FIG. 2B).

Plasmodium chabaudi [1] = assay: 4-day test, P. chabaudi (10^7 pRBC i.v.) in pantetheinase-sufficient C57BL/6 mice, blood parasitemia days 4 and 5; assay type: in vivo; details: cysteamine 170 mg/kg i.p. alone, days 0-3
Protocol: (§1) A/J and C57BL/6 (B6) mice were purchased from the Jackson Laboratories (Bar Harbor, Me.) and were housed at McGill University according to the guidelines of the Canadian Council on Animal Care. An LDH virus-free isolate of P. chabaudi AS was maintained by weekly passage in A/J mice. Mice were infected intravenously into the tail vein (i.v.) with 10^6 or 10^7 pRBC suspended in pyrogen-free saline. Following infection, the percentage of pRBC was determined daily on thin blood smears stained with Dif-Quik™ (Dade Behring, Newark, Del.), as described (Fortin A, et al. (2001) Proc Natl Acad Sci USA 98: 10793-10798).
(§2) Cysteamine hydrochloride (Sigma, Burlington ON) was prepared in PBS. Chloroquine hydrochloride, artesunate and dihydroartemisinin were provided by Dafra Pharmaceuticals; chloroquine was prepared in PBS, artesunate and DHA were prepared in 5% sodium bicarbonate and diluted in water to appropriate concentrations. All solutions were prepared fresh daily, filter sterilized and injections were performed intra-peritoneally (i.p) or subcutaneously (s.c.) for 4 days or according to treatment regimen. Mice were weighed prior to treatment to determine appropriate doses and injection volumes ranged from 100-400 μL per mouse. In the case of animals treated with two drugs, artemisinin derivatives were administered first (due to the short half life of cysteamine), followed by cysteamine 5-10 minutes later on alternate sides. Untreated control animals were injected with PBS alone.
Groups with normally distributed data points were compared using parametric unpaired t-tests, while groups with non-Gaussian distributions were compared using non-parametric Mann-Whitney tests. Survival differences were analyzed using the Log-Rank test. […] Standard error of percent inhibition was calculated from individual mice compared to the mean parasitemia level of the control group.
The effect of Cys on the potency and efficacy of the anti-malarial artemisinin derivatives was tested. […] Synergy (Tallarida R J (2001) J Pharmacol Exp Ther 298: 865-872) is defined as a total anti-malarial activity (reduction in blood parasitemia compared to untreated controls in a standard 4-day test) of the two compounds administered together being greater than the sum of the independent activities of the two compounds given alone. We tested combinations of Cys and either artesunate (ART) or dihydroartemisinin (DHA), the bioactive form of artemisinin. Pantetheinase-deficient mice were infected with P. chabaudi (10^7 pRBC, i.v.) and treated with Cys (170 mg/kg) and/or sub-optimal doses of ART (0.2 or 0.5 mg/kg) (FIG. 3A) or DHA (0.15 or 0.3 mg/kg) (FIG. 3B) from day 0-3 and parasitemia was monitored on days 4 and 5. […] Potentiation of the anti-malarial activity of ART (0.5 mg/kg) by Cys was also clearly evident in these C57BL/6 mice at both days 4 and 5 post-infection, with combined treatment causing a 65-71% reduction in parasitemia compared to PBS controls, greater than either compound tested alone (13-29%) (TABLE 1).

Plasmodium chabaudi [2] = assay: Progression of P. chabaudi infection (10^6 pRBC i.v.) in pantetheinase-sufficient B6 mice; assay type: in vivo; details: Cys 60 mg/kg added to Art
Protocol: as §1, §2
To investigate whether the effects on parasite burden over the course of infection would also be observed with a pantetheinase-sufficient mouse strain, a similar experiment was performed using female B6 mice. Groups of mice were infected with 10^6 P. chabaudi pRBC i.v. and treated with PBS, 1 mg/kg or 30 mg/kg of Art, or 1 mg/kg or 30 mg/kg of Art plus 60 mg/kg of Cys for 4 days. […] As in A/J mice, the effect of Cys addition to 1 mg/kg of Art has a clear effect on early parasite replication at day 6 (FIG. 6B). […] B6 mice were able to completely clear parasite burdens and survive the infection, even in the control PBS-treated group.

In the case of `NCCS` [Cysteamine], the AUC (in vivo; ip, 120 mg/kg) was 405 µM·h, the Cmax (in vivo; ip, 120 mg/kg) was 665 µM and the Tmax (in vivo; ip, 120 mg/kg) was under 5 min. For the same compound, the AUC (in vivo; sc, 50 mg/kg) was 47.4 µM·h, the Cmax (in vivo; sc, 50 mg/kg) was about 80 µM and the AUC (in vivo; sc, 120 mg/kg) was 255 µM·h. The Cmax (in vivo; sc, 120 mg/kg) was 250 µM, the Tmax (in vivo; sc, 120 mg/kg) was 30 min and the “Inhibition of parasitemia Day 4” value (Plasmodium chabaudi [1]) was 13 % PBS control. The “Inhibition of parasitemia Day 5” value (Plasmodium chabaudi [1]) was 25 % PBS control and the “recrudescent parasitemia around day 14” value (Plasmodium chabaudi [2]) was “eliminated the appearance of recrudescent parasitemia”.
